Experimental data taken from ChEMBL document CHEMBL5365455, “Design, synthesis and anticancer activity of N-aryl indolylsulfoximines: Identification of potent and selective anticancer agents” (Bioorg Med Chem, 2023).
Calls of active or inactive are those of the source. The rule behind the calls is not given here.

What was measured:
PC-3 = test: Anticancer activity against human PC-3 cells assessed as cell growth inhibition measured after 48 hrs by MTT assay; assay type: functional, cell-based; conditions: PC-3, 48 h
HEK293 = test: (§1) Cytotoxicity against HEK293 cells assessed as cell growth inhibition measured after 48 hrs by MTT assay; assay type: toxicity, cell-based, Homo sapiens; conditions: hek293
CWR22R = test: Anticancer activity against human 22Rv1 cells assessed as cell growth inhibition measured after 48 hrs by MTT assay; assay type: functional, cell-based; conditions: 22Rv1, 48 h
MCF7 = test: Anticancer activity against human MCF7 cells assessed as cell growth inhibition measured after 48 hrs by MTT assay; assay type: functional, cell-based; conditions: MCF7, 48 h
LNCaP C4-2 [1] = test: Anticancer activity against human LNCaP C4-2 cells assessed as cell growth inhibition measured after 48 hrs by MTT assay; assay type: functional, cell-based; conditions: LNCaP C4-2, 48 h
[2] = as §1; assay type: toxicity, cell-based, Homo sapiens; conditions: human, HEK293 cells
Cell membrane [3] = test: Induction of mitochondrial membrane depolarization in human LNCaP C4-2 cells at 1 ug/ml measured after 48 hrs by JC-1 staining based fluorescence microscopic analysis; assay type: subcellular; conditions: dose 1.0 µg/ml
LNCaP C4-2 [4] = test: Induction of apoptosis in human LNCaP C4-2 cells assessed as increase in c-Jun level at 10 uM measured after 48 hrs by Western blot analysis; assay type: functional, cell-based
Tubulin (Homo sapiens) [5] = molecular target: T1, Tubulin (Homo sapiens) (UniProt P68371+Q9H4B7+P0DPH7+P68366+Q13509+Q71U36+P04350+Q3ZCM7+P07437+P68363+Q9BQE3+Q6PEY2+Q13885+Q9BVA1+Q9BUF5); test: Induction of tubulin depolymerization in human LNCaP C4-2 cells assessed as shrinkage of tubulin at 10 uM measured after 48 hrs by fluorescence microscopic analysis; assay type: cell-based
LNCaP C4-2 [6] = test: Induction of apoptosis in human LNCaP C4-2 cells assessed as increase in p53 level at 10 uM measured after 48 hrs by Western blot analysis; assay type: functional, cell-based
Cell membrane [7] = test: Induction of mitochondrial membrane depolarization in human LNCaP C4-2 cells at 10 uM measured after 48 hrs by JC-1 staining based fluorescence microscopic analysis; assay type: subcellular
Tubulin (Homo sapiens) [8] = molecular target: T1, Tubulin (Homo sapiens); test: Induction of tubulin depolymerization in human 22Rv1 cells assessed as decrease in polymerized tubulin level at 20 uM measured after 24 hrs by Bradford assay relative to control; assay type: cell-based; parameters: scale not given: the % may be the effect or the level left
LNCaP C4-2 [9] = test: Induction of ROS accumulation in human LNCaP C4-2 cells at 10 uM measured after 48 hrs by H2DCFDA dye based inverted fluorescent microscopic analysis; assay type: functional, cell-based
LNCaP C4-2 [10] = test: Induction of cytokinesis defect in human LNCaP C4-2 cells at 10 uM measured after 48 hrs by DAPI staining based fluorescence imaging analysis; assay type: functional, cell-based
LNCaP C4-2 [11] = test: Inhibition of cell migration in human LNCaP C4-2 cells assessed as reduction in cell motility at 10 uM incubated for 12 to 24 hrs by inverted microscopy based scratch wound healing assay; assay type: functional; conditions: time 12-24 hrs
LNCaP C4-2 [12] = test: Induction of cell death in human LNCaP C4-2 cells assessed as red fluorescence at 10 uM incubated for 48 hrs by ethidium bromide/acridine orange staining based fluorescent microscopic analysis; assay type: functional
Tubulin (Homo sapiens) [13] = molecular target: T1, Tubulin (Homo sapiens); test: Induction of tubulin depolymerization in human LNCaP C4-2 cells assessed as tubulin condensation towards nucleus at 10 uM measured after 48 hrs by fluorescence microscopic analysis; assay type: cell-based
LNCaP C4-2 [14] = test: Inhibition of colony formation in human LNCaP C4-2 cells assessed as decrease in colony number at 10 uM measured after 10 days by crystal violet staining based assay; assay type: functional, cell-based; conditions: time 10.0 day

Compound	IC50 (PC-3)	IC50 (HEK293)	IC50 (CWR22R)	IC50 (MCF7)	IC50 (LNCaP C4-2 [1])	also measured
COc1ccc(N=S(C)(=O)c2c[nH]c3ccccc23)cc1 (configuration not stated)	17.1 µM	> 40 µM	3.31 µM	> 40 µM	1.95 µM	
CS(=O)(=Nc1cccc(C(F)(F)F)c1)c1c[nH]c2ccccc12 (configuration not stated)			> 40 µM	2 µM	2.18 µM	IC50 at 48 h [2]: 40 µM
COc1cc(N=S(C)(=O)c2cn(Cc3ccc(Cl)cc3)c3ccccc23)cc(OC)c1OC (configuration not stated)	> 40 µM	> 40 µM	> 40 µM		40 µM	
CS(=O)(=Nc1ccc(F)cc1)c1c[nH]c2ccccc12 (configuration not stated)	> 40 µM	> 40 µM	40 µM	40 µM	3.7 µM	
CS(=O)(=Nc1ccc(Br)cc1)c1c[nH]c2ccccc12 (configuration not stated)	11.1 µM	> 40 µM	> 40 µM	> 40 µM	> 40 µM	
CS(=O)(=Nc1ccc(F)c(F)c1)c1c[nH]c2ccccc12 (configuration not stated)	14.4 µM	> 40 µM	40 µM	> 40 µM	1.9 µM	
CS(=O)(=Nc1ccccc1)c1c[nH]c2ccccc12 (configuration not stated)	> 40 µM	> 40 µM	> 40 µM	10 µM	8.9 µM	
COc1ccc(N=S(C)(=O)c2c[nH]c3ccc(Br)cc23)cc1 (configuration not stated)				1.28 µM		IC50 at 48 h [2]: > 40 µM
COc1ccc(N=S(C)(=O)c2c[nH]c3ccc(OC)cc23)cc1 (configuration not stated)	12.2 µM	> 40 µM	2.76 µM	> 40 µM	40 µM	
Cc1ccc(N=S(C)(=O)c2c[nH]c3ccccc23)cc1 (configuration not stated)	> 40 µM		> 40 µM	1.6 µM	2.3 µM	IC50 at 48 h [2]: 40 µM
COc1ccc(C[C@H](N)C(=O)N[C@H]2[C@@H](O)[C@H](n3cnc4c(N(C)C)ncnc43)O[C@@H]2CO)cc1						Activity (Cell membrane [3]): Active
COc1ccc(N=S(C)(=O)c2c[nH]c3cc(F)ccc23)cc1 (configuration not stated)	3.51 µM		1.91 µM	1.7 µM	8.2 µM	IC50 at 48 h [2]: > 40 µM; Activity (LNCaP C4-2 [4]): Active; Activity (Tubulin (Homo sapiens) [5]): Active; Activity (LNCaP C4-2 [6]): Active; Activity (Cell membrane [7]): Active; Activity (Tubulin (Homo sapiens) [8]): 13%; Activity (LNCaP C4-2 [9]): Active; Activity (LNCaP C4-2 [10]): Active; inhibition (LNCaP C4-2 [11]): Active; Activity (LNCaP C4-2 [12]): Active; Activity (Tubulin (Homo sapiens) [13]): Active; inhibition (LNCaP C4-2 [14]): Active
COc1cc(N=S(C)(=O)c2c[nH]c3ccccc23)cc(OC)c1OC (configuration not stated)	21.7 µM	> 40 µM	> 40 µM	40 µM	10 µM	
COc1ccc2[nH]cc(S(C)(=O)=Nc3cc(OC)c(OC)c(OC)c3)c2c1 (configuration not stated)	> 40 µM	> 40 µM	2.68 µM	38.8 µM	> 40 µM	
